# Measurements published in patent US12215140B2, “Method of stabilizing protein contained in specimen and solution for stabilizing protein contained in specimen” (EIKEN KAGAKU KABUSHIKI KAISHA, priority 2018, dated 2025).
# Target: hemoglobin (Homo sapiens, UniProt P68871+P69905)
# Assay: Stability of hemoglobin in samples preserved at 37° C. in preservation solution containing no haptoglobin, Hb measured by latex agglutination method (Examples 8, 9 and Table 10)
# Method: Preservation solutions were prepared with the addition of 40 mmol/L HEPES (pH 6.8), 0.1% BSA, 0.1% NaN3, and 0 to 2.5 mmol/L phenylboronic acid. […] Samples obtained by adding hemoglobin-added fecal specimens to the preservation solutions so that the fecal concentration would be 0.5% were preserved at 37° C. for 0, 16, 38, and 62 hours. The fecal specimens were added with hemoglobin having an amount such that the hemoglobin concentration in the samples would be about 300 μg/L. Instead of the fecal specimens to which hemoglobin was added, samples containing no fecal specimens, in which hemoglobin was added to the preservation solutions so that the hemoglobin concentration in the samples would be 300 μg/L, were similarly preserved. The hemoglobin (Hb) concentrations (μg/L) in the preserved samples were measured by the latex agglutination method using the same measurement reagent and measurement device as in Example 1.
# The concentration of phenylboronic acid in the preservation solutions of Example 8 was fixed to 0.5 mmol/L, preservation solutions to which sorbitol or sucrose was further added at 10 to 250 mmol/L or trehalose, glucose, fructose, or mannitol was further added at 50 to 100 mmol/L were prepared, and testing was conducted in the same manner as in Example 8. In addition, preservation solutions to which the phenylboronic acid was added but no sugar was added were prepared, preservation solutions to which the phenylboronic acid and sugar were not added were prepared for the comparative examples, and testing was conducted in the same manner.
# For comparative examples, preservation solutions to which no arylboronic acid was added were prepared, and testing was conducted in the same manner.
# [1] = Feces 1, 0 h at 37° C., arylboronic acid 0.5 mmol/L, no sugar
# [2] = Feces 1, 16 h at 37° C., arylboronic acid 0.5 mmol/L, no sugar
# [3] = Feces 1, 38 h at 37° C., arylboronic acid 0.5 mmol/L, no sugar
# [4] = Feces 1, 62 h at 37° C., arylboronic acid 0.5 mmol/L, no sugar
# [5] = Feces 1, arylboronic acid 0.5 mmol/L, 0 h at 37° C.
# [6] = Feces 1, arylboronic acid 0.5 mmol/L, 16 h at 37° C.
# [7] = Feces 1, arylboronic acid 0.5 mmol/L, 38 h at 37° C.
# [8] = Feces 1, arylboronic acid 0.5 mmol/L, 62 h at 37° C.
# [9] = Feces 1, arylboronic acid 1 mmol/L, 0 h at 37° C.
# [10] = Feces 1, arylboronic acid 1 mmol/L, 16 h at 37° C.
# [11] = Feces 1, arylboronic acid 1 mmol/L, 38 h at 37° C.
# [12] = Feces 1, arylboronic acid 1 mmol/L, 62 h at 37° C.
# [13] = Feces 2, 0 h at 37° C., arylboronic acid 0.5 mmol/L, no sugar
# [14] = Feces 2, 16 h at 37° C., arylboronic acid 0.5 mmol/L, no sugar
# [15] = Feces 2, 38 h at 37° C., arylboronic acid 0.5 mmol/L, no sugar
# [16] = Feces 2, 62 h at 37° C., arylboronic acid 0.5 mmol/L, no sugar
# [17] = Feces 2, arylboronic acid 0.5 mmol/L, 0 h at 37° C.
# [18] = Feces 2, arylboronic acid 0.5 mmol/L, 16 h at 37° C.
# [19] = Feces 2, arylboronic acid 0.5 mmol/L, 38 h at 37° C.
# [20] = Feces 2, arylboronic acid 0.5 mmol/L, 62 h at 37° C.
# [21] = Feces 2, arylboronic acid 1 mmol/L, 0 h at 37° C.
# [22] = Feces 2, arylboronic acid 1 mmol/L, 16 h at 37° C.
# [23] = Feces 2, arylboronic acid 1 mmol/L, 38 h at 37° C.
# [24] = Feces 2, arylboronic acid 1 mmol/L, 62 h at 37° C.
# [25] = Feces 3, 0 h at 37° C., arylboronic acid 0.5 mmol/L, no sugar
# [26] = Feces 3, 16 h at 37° C., arylboronic acid 0.5 mmol/L, no sugar
# [27] = Feces 3, 38 h at 37° C., arylboronic acid 0.5 mmol/L, no sugar
# [28] = Feces 3, 62 h at 37° C., arylboronic acid 0.5 mmol/L, no sugar
# [29] = Feces 3, arylboronic acid 0.5 mmol/L, 0 h at 37° C.
# [30] = Feces 3, arylboronic acid 0.5 mmol/L, 16 h at 37° C.
# [31] = Feces 3, arylboronic acid 0.5 mmol/L, 38 h at 37° C.
# [32] = Feces 3, arylboronic acid 0.5 mmol/L, 62 h at 37° C.
# [33] = Feces 3, arylboronic acid 1 mmol/L, 0 h at 37° C.
# [34] = Feces 3, arylboronic acid 1 mmol/L, 16 h at 37° C.
# [35] = Feces 3, arylboronic acid 1 mmol/L, 38 h at 37° C.
# [36] = Feces 3, arylboronic acid 1 mmol/L, 62 h at 37° C.
# [37] = No feces, 0 h at 37° C., arylboronic acid 0.5 mmol/L, no sugar
# [38] = No feces, 16 h at 37° C., arylboronic acid 0.5 mmol/L, no sugar
# [39] = No feces, 38 h at 37° C., arylboronic acid 0.5 mmol/L, no sugar
# [40] = No feces, 62 h at 37° C., arylboronic acid 0.5 mmol/L, no sugar
# [41] = No feces, arylboronic acid 0.5 mmol/L, 0 h at 37° C.
# [42] = No feces, arylboronic acid 0.5 mmol/L, 16 h at 37° C.
# [43] = No feces, arylboronic acid 0.5 mmol/L, 38 h at 37° C.
# [44] = No feces, arylboronic acid 0.5 mmol/L, 62 h at 37° C.
# [45] = No feces, arylboronic acid 1 mmol/L, 0 h at 37° C.
# [46] = No feces, arylboronic acid 1 mmol/L, 16 h at 37° C.
# [47] = No feces, arylboronic acid 1 mmol/L, 38 h at 37° C.
# [48] = No feces, arylboronic acid 1 mmol/L, 62 h at 37° C.
# Sequence of hemoglobin (P69905 2-142): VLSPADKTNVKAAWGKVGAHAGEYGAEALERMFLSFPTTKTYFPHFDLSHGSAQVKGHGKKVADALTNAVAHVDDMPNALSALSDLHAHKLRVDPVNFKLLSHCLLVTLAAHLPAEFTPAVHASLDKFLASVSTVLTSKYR
# Sequence of hemoglobin (P68871 2-147): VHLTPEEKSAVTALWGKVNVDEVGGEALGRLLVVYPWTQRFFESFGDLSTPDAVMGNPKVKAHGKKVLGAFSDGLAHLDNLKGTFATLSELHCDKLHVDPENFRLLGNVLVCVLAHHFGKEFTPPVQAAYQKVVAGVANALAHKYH
structure (smiles),measurement,setting,value
OB(O)c1ccccc1 [PBA],Hb concentration,[1],300 µg/L
same,Recovery ratio with respect to Hb after 0 days,[1],100%
same,Hb concentration,[2],174 µg/L
same,Recovery ratio with respect to Hb after 0 days,[2],58%
same,Hb concentration,[3],74 µg/L
same,Recovery ratio with respect to Hb after 0 days,[3],25%
same,Hb concentration,[4],17 µg/L
same,Recovery ratio with respect to Hb after 0 days,[4],6%
same,Hb concentration,[5],300 µg/L
same,Recovery ratio with respect to Hb after 0 days,[5],100%
same,Hb concentration,[6],174 µg/L
same,Recovery ratio with respect to Hb after 0 days,[6],58%
same,Hb concentration,[7],74 µg/L
same,Recovery ratio with respect to Hb after 0 days,[7],25%
same,Hb concentration,[8],17 µg/L
same,Recovery ratio with respect to Hb after 0 days,[8],6%
same,Hb concentration,[9],298 µg/L
same,Recovery ratio with respect to Hb after 0 days,[9],100%
same,Hb concentration,[10],182 µg/L
same,Recovery ratio with respect to Hb after 0 days,[10],61%
same,Hb concentration,[11],92 µg/L
same,Recovery ratio with respect to Hb after 0 days,[11],31%
same,Hb concentration,[12],30 µg/L
same,Recovery ratio with respect to Hb after 0 days,[12],10%
same,Hb concentration,[13],299 µg/L
same,Recovery ratio with respect to Hb after 0 days,[13],100%
same,Hb concentration,[14],103 µg/L
same,Recovery ratio with respect to Hb after 0 days,[14],34%
same,Hb concentration,[15],10 µg/L
same,Recovery ratio with respect to Hb after 0 days,[15],3%
same,Hb concentration,[16],0 µg/L
same,Recovery ratio with respect to Hb after 0 days,[16],0%
same,Hb concentration,[17],299 µg/L
same,Recovery ratio with respect to Hb after 0 days,[17],100%
same,Hb concentration,[18],103 µg/L
same,Recovery ratio with respect to Hb after 0 days,[18],34%
same,Hb concentration,[19],10 µg/L
same,Recovery ratio with respect to Hb after 0 days,[19],3%
same,Hb concentration,[20],0 µg/L
same,Recovery ratio with respect to Hb after 0 days,[20],0%
same,Hb concentration,[21],299 µg/L
same,Recovery ratio with respect to Hb after 0 days,[21],100%
same,Hb concentration,[22],119 µg/L
same,Recovery ratio with respect to Hb after 0 days,[22],40%
same,Hb concentration,[23],17 µg/L
same,Recovery ratio with respect to Hb after 0 days,[23],6%
same,Hb concentration,[24],0 µg/L
same,Recovery ratio with respect to Hb after 0 days,[24],0%
same,Hb concentration,[25],289 µg/L
same,Recovery ratio with respect to Hb after 0 days,[25],100%
same,Hb concentration,[26],92 µg/L
same,Recovery ratio with respect to Hb after 0 days,[26],32%
same,Hb concentration,[27],8 µg/L
same,Recovery ratio with respect to Hb after 0 days,[27],3%
same,Hb concentration,[28],0 µg/L
same,Recovery ratio with respect to Hb after 0 days,[28],0%
same,Hb concentration,[29],289 µg/L
same,Recovery ratio with respect to Hb after 0 days,[29],100%
same,Hb concentration,[30],92 µg/L
same,Recovery ratio with respect to Hb after 0 days,[30],32%
same,Hb concentration,[31],8 µg/L
same,Recovery ratio with respect to Hb after 0 days,[31],3%
same,Hb concentration,[32],0 µg/L
same,Recovery ratio with respect to Hb after 0 days,[32],0%
same,Hb concentration,[33],287 µg/L
same,Recovery ratio with respect to Hb after 0 days,[33],100%
same,Hb concentration,[34],112 µg/L
same,Recovery ratio with respect to Hb after 0 days,[34],39%
same,Hb concentration,[35],14 µg/L
same,Recovery ratio with respect to Hb after 0 days,[35],5%
same,Hb concentration,[36],0 µg/L
same,Recovery ratio with respect to Hb after 0 days,[36],0%
same,Hb concentration,[37],295 µg/L
same,Recovery ratio with respect to Hb after 0 days,[37],100%
same,Hb concentration,[38],284 µg/L
same,Recovery ratio with respect to Hb after 0 days,[38],96%
same,Hb concentration,[39],270 µg/L
same,Recovery ratio with respect to Hb after 0 days,[39],91%
same,Hb concentration,[40],263 µg/L
same,Recovery ratio with respect to Hb after 0 days,[40],89%
same,Hb concentration,[41],295 µg/L
same,Recovery ratio with respect to Hb after 0 days,[41],100%
same,Hb concentration,[42],284 µg/L
same,Recovery ratio with respect to Hb after 0 days,[42],96%
same,Hb concentration,[43],270 µg/L
same,Recovery ratio with respect to Hb after 0 days,[43],91%
same,Hb concentration,[44],263 µg/L
same,Recovery ratio with respect to Hb after 0 days,[44],89%
same,Hb concentration,[45],292 µg/L
same,Recovery ratio with respect to Hb after 0 days,[45],100%
same,Hb concentration,[46],276 µg/L
same,Recovery ratio with respect to Hb after 0 days,[46],95%
same,Hb concentration,[47],261 µg/L
same,Recovery ratio with respect to Hb after 0 days,[47],90%
same,Hb concentration,[48],259 µg/L
same,Recovery ratio with respect to Hb after 0 days,[48],89%
